From ChEMBL document CHEMBL2028040, “Malaria Box”

Assays:
[1] = system: Trypanosoma brucei rhodesiense; test: MMV: Inhibition of Trypanosoma brucei rhodesiense (STIB 900) (HAT in vitro).; format: functional, organism-based
[2] = MMV: Cytotoxicity against human fibroblasts (MRC-5) cells.; details: MRC-5 cells (human fibroblasts)
[3] = system: Trypanosoma brucei brucei; test: MMV: Inhibition of Trypanosoma brucei brucei (Squib 427) (HAT in vitro).; format: functional, organism-based
Trypanosoma cruzi = test: MMV: Inhibition of Trypanosoma cruzi (Tulahuen C4 LacZ) (Chagas in vitro).; format: functional, organism-based
Plasmodium falciparum [4] = test: MMV: Inhibition of Plasmodium falciparum 3D7 at 5uM compound concentration.; format: functional
Leishmania infantum = test: MMV: Inhibition of Leishmania infantum (MHOM/MA/BE/67) in vitro.; format: functional, organism-based
Plasmodium falciparum [5] = test: MMV: Inhibition of Plasmodium falciparum K1 (EC50).; format: functional, organism-based
Plasmodium falciparum [6] = test: MMV: Inhibition of Plasmodium falciparum 3D7 (EC50).; format: functional, organism-based

Row | IC50 [1] | IC50 [3] | IC50 (Trypanosoma cruzi) | IC50 (Leishmania infantum) | EC50 (Plasmodium falciparum [5]) | EC50 (Plasmodium falciparum [6]) | Compound | IC50 [2] | inhibition at 5 µM (Plasmodium falciparum [4])
1 | 11 µM | 7 µM | > 32 µM | > 32 µM | 0.184 µM | 0.439 µM | CCOc1ccc2c(c1)CN(Cc1ccc(Cl)cc1)CO2 | > 32 µM | 97%
2 | 13.6 µM | 15.1 µM | 14.9 µM | > 32 µM | 1.45 µM | 0.735 µM | O=C(Nc1ccc(N2CCCCC2)c(Cl)c1)c1ccc(Br)o1 | 26.8 µM | 96%
3 | 30.5 µM | > 32 µM | 17.9 µM | > 32 µM | 0.893 µM | 0.56 µM | CCOc1ccc(/C=C/c2nc(=O)c3ccccc3o2)cc1 | > 32 µM | 95%
4 | 0.311 µM | 1.03 µM | 1 µM | 4.06 µM | 0.487 µM | 0.142 µM | CN1CCN(c2ccc(Nc3c4ccccc4nc4ccccc34)cc2)CC1 | 10.9 µM | 97%
5 | 4.12 µM | 10 µM | 16.3 µM | 25.4 µM | 0.824 µM | 0.478 µM | COc1ccccc1N1C(=N)SC(=Cc2ccc(OCc3ccccc3F)cc2)C1=O | > 32 µM | 95%
6 | 3.92 µM | 4 µM | 0.375 µM | 6.35 µM | 1.58 µM | 0.716 µM | CCCCc1c(CCC)c(=N)c2ccccc2n1C | 19.3 µM | 77%
7 | 0.252 µM | 0.851 µM | 4.32 µM | 4 µM | 0.86 µM | 1.08 µM | OC(CNCc1ccccc1)Cn1c2ccccc2c2ccccc21 (stereo not drawn) | 16.1 µM | 95%
8 | 3.54 µM | 4 µM | 4.51 µM | 4.76 µM | 1.93 µM | 0.845 µM | COc1ccc(C2Sc3ccccc3N=C3C2=C(O)c2ccccc23)cc1 (stereo not drawn) | > 32 µM | 96%
9 | 0.352 µM | 1 µM | 0.234 µM | 1.19 µM | 1.14 µM | 0.697 µM | CC(C)OCc1cc(CN2CCN(c3cccc(Cl)c3)CC2)c(O)c2ncccc12 | 1.17 µM | 98%
10 | 22.5 µM | > 32 µM | 25.9 µM | > 32 µM | 0.986 µM | 1.11 µM | COc1ccc(N2CCN(C(CNC(=O)C3CCCCC3)c3ccc4c(c3)OCO4)CC2)cc1 (stereo not drawn) | > 32 µM | 97%
11 | 13.9 µM | 13.7 µM | 11.6 µM | 16.1 µM | 0.687 µM | 0.168 µM | COc1ccc(C=C2SC(=N)N(c3ccccc3OC)C2=O)cc1 | 4.49 µM | 97%
12 | 17.4 µM | > 32 µM | > 32 µM | > 32 µM | 0.576 µM | 0.669 µM | Cn1c(=O)c2cc(C(=O)NCCCN3CCCCCC3)sc2c2ccccc21 | > 32 µM | 97%

The next lines start with the compound.

Row | Compound | IC50 [1] | IC50 [3] | IC50 (Trypanosoma cruzi) | IC50 (Leishmania infantum) | EC50 (Plasmodium falciparum [5]) | EC50 (Plasmodium falciparum [6]) | IC50 [2] | inhibition at 5 µM (Plasmodium falciparum [4])
13 | CCOc1c(Br)cc(C2C(C(=O)OC)=CN(C)C=C2C(=O)OC)cc1OC | 30.9 µM | > 32 µM | > 32 µM | > 32 µM | 1.07 µM | 0.512 µM | > 32 µM | 96%
14 | CCCCCCc1cc2cc(-c3nc4ccccc4[nH]3)c(=Nc3ccccc3C)oc2cc1O | 12.8 µM | 17 µM | > 32 µM | > 32 µM | 0.149 µM | 0.551 µM | > 32 µM | 96%
15 | OC(Cn1nnc2ccccc21)Cn1c2ccc(Br)cc2c2cc(Br)ccc21 (stereo not drawn) | > 32 µM | > 32 µM | > 32 µM | > 32 µM | 1.23 µM | 1.26 µM | > 32 µM | 98%
16 | Cc1cccc(N2C(=O)C3C(C2=O)C2(c4ccccc4)C(=O)C3(c3ccccc3)C(c3ccc4c(c3)OCO4)=C2c2ccc3c(c2)OCO3)c1 (stereo not drawn) | > 32 µM | > 32 µM | > 32 µM | > 32 µM | 0.261 µM | 0.304 µM | > 32 µM | 94%
17 | c1ccc(/C2=N/c3ccccc3/N=C(/c3ccccc3)c3ccccc32)cc1 | 4.52 µM | 16.5 µM | 26.1 µM | 16.6 µM | 1.1 µM | 0.661 µM | > 32 µM | 99%
18 | CCOC(=O)C1CCN(C(=O)CN2C(=O)c3ccccc3C2c2c[nH]c3ccccc23)CC1 (stereo not drawn) | 13.8 µM | 16.1 µM | 14.7 µM | > 32 µM | 2.67 µM | 1.18 µM | > 32 µM | 98%
19 | Cc1ccc(-c2cc3c(nn2)-c2ccccc2C3=O)cc1 | 15 µM | > 32 µM | > 32 µM | > 32 µM | 0.165 µM | 0.0944 µM | > 32 µM | 99%
20 | CCCCC(O)(c1ccc(Cl)cc1)C(CN1CCOCC1)c1ccc(Cl)cc1 (stereo not drawn) | 4.32 µM | 3.91 µM | 14.3 µM | 10.2 µM | 1.53 µM | 1.38 µM | > 32 µM | 98%
21 | CSc1ccccc1C(=O)Nc1nc(-c2ccccn2)cs1 | 0.272 µM | 0.931 µM | 0.25 µM | 0.336 µM | 0.562 µM | 0.206 µM | 2.78 µM | 98%
22 | COc1ccccc1CNC(=O)CCn1c(=O)[nH]c2ccccc2c1=O | > 32 µM | > 32 µM | > 32 µM | > 32 µM | 0.19 µM | 0.0726 µM | > 32 µM | 64%
23 | CCCCCCn1c(=N)n(CC(O)COc2cccc(C)c2)c2ccccc21 (stereo not drawn) | 0.942 µM | 1.01 µM | 3.78 µM | 2.54 µM | 0.7 µM | 1.14 µM | 4 µM | 98%
24 | CCCCNCC(O)(c1ccc(Cl)cc1)c1ccc(Cl)cc1 | 3.86 µM | 3.27 µM | 14.3 µM | 13.6 µM | 0.525 µM | 0.843 µM | > 32 µM | 97%
25 | OC1=C2C(=Nc3ccccc3SC2c2ccc(Br)cc2)c2ccccc21 (stereo not drawn) | 2.66 µM | 4.09 µM | 3.62 µM | 4.32 µM | 0.961 µM | 0.567 µM | > 32 µM | 97%
26 | Oc1ccccc1CN1CCN(C(c2ccccc2)c2ccccc2)CC1 | 12.5 µM | 15.6 µM | 4.1 µM | 11.9 µM | 0.203 µM | 0.611 µM | > 32 µM | 97%
27 | Cc1cc(Nc2ccc(OCc3ccccc3)cc2)nc2cc(O)ccc12 | 3.54 µM | 11.9 µM | 4.39 µM | 16.2 µM | 0.52 µM | 0.684 µM | 14 µM | 96%
28 | COc1cccc(NC(=O)Cn2c(C)c(C#N)c3ccccc32)c1 | 20.2 µM | > 32 µM | > 32 µM | > 32 µM | 1.48 µM | 1.09 µM | > 32 µM | 95%
29 | COc1ccc(C2C(C(=O)Nc3cccc(OC)c3)c3ccccc3C(=O)N2C2CCCCC2)cc1 (stereo not drawn) | 3.7 µM | 4.06 µM | 15.6 µM | 6.35 µM | 1.6 µM | 1.18 µM | > 32 µM | 97%
30 | Cc1ccc(N2C(=O)C3C(C2=O)C2(c4ccccc4)C(=O)C3(c3ccccc3)C(c3ccccc3)=C2c2ccccc2)cc1 (stereo not drawn) | > 32 µM | > 32 µM | > 32 µM | > 32 µM | 0.396 µM | 0.282 µM | > 32 µM | 98%
31 | Cc1ccc(N2C3c4ccccc4N(S(=O)(=O)c4ccc(C)cc4)C2c2ccccc2N3S(=O)(=O)c2ccc(C)cc2)cc1 | 16.5 µM | > 32 µM | > 32 µM | 16.2 µM | 0.0276 µM | 0.0248 µM | > 32 µM | 97%
32 | COc1cccc(C=Cc2nc(=O)c3ccccc3o2)c1OC | 17.5 µM | > 32 µM | > 32 µM | > 32 µM | 0.0362 µM | 0.0238 µM | > 32 µM | 96%
33 | CCOC(=O)c1cn(CC)c2cc(N3CCCCC3)c(F)cc2c1=O | > 32 µM | > 32 µM | > 32 µM | > 32 µM | 0.259 µM | 0.119 µM | > 32 µM | 100%
34 | COc1ccc(-c2cc(=O)oc3c4c(ccc23)OCN(Cc2ccc(F)cc2)C4)cc1 | 11 µM | 15.8 µM | 13.2 µM | 5.38 µM | 0.294 µM | 0.735 µM | > 32 µM | 96%
35 | CCOc1cc2c(cc1OCC)C(c1cc(Cl)ccc1O)NCC2 (stereo not drawn) | 1.3 µM | 3 µM | > 32 µM | > 32 µM | 0.206 µM | 0.746 µM | > 32 µM | 98%
36 | CCOc1cc2c(cc1OCC)C(c1cc(OC)c(O)cc1Cl)NCC2 (stereo not drawn) | 16.2 µM | 15.2 µM | 14.6 µM | > 32 µM | 0.114 µM | 0.37 µM | > 32 µM | 98%
